The test system of one assay is HT-1197 cells. As to the kind of experiment: Cell-based assay: anti-proliferative activity, Cell Counting Kit-8, 72 hours (HT-1197, negative control without MELK expression). The following applies: Homo sapiens, HT1197, 72 h, 72 hours. Summed up: (§1)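 Anti-MELK western blot on crude lysates → MELK status per line. Cells plated 96-well, compound exposure, CCK-8 readout at 72 h; IC50 calculated.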
For orientation: Tetrazolium assays rely on reduction of a dye to a coloured formazan, in cell work by metabolically active cells.

The test system of another assay is A549 cells. The assay is described as follows: Cell-based assay: anti-proliferative activity, Cell Counting Kit-8, 72 hours (A549). As to conditions: Homo sapiens, A549, 72 h, 72 hours. Summed up: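 Cell Counting Kit-8 read-out of A549 growth after 72 hours of inhibitor exposure, cells plated in 96-well format. Values reported as IC50.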
A further assay addresses MELK (Homo sapiens, UniProt Q14680). The assay is described as follows: Kinase assay: MELK activity, phosphorylation of FITC-labeled histone H3 peptide measured by IMAP fluorescence polarization. The assay is classed as biochemical. As to conditions: read-out: IC50 (μM) (kinase assay). Summed up: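 Compounds, serially diluted from 12.5 mM DMSO stocks to 1% final DMSO, were tested with FITC-labeled histone H3 peptide as substrate. The reaction was stopped with progressive binding solution. Fluorescence polarization was read after 0.5 hour at room temperature.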
Background: Polarisation of emitted light reports the rotation of a fluorescent probe.

A further assay relates to DU4475. As to the kind of experiment: Cell-based assay: anti-proliferative activity, Cell Counting Kit-8, 72 hours (DU4475). The following applies: Homo sapiens, DU-4475, DU4475 cells.
Another assay deals with T47D cells. As to the kind of experiment: Cell-based assay: anti-proliferative activity, Cell Counting Kit-8, 72 hours (T47D). As to conditions: Homo sapiens, T47D, 72 h. Summed up:
as §1

The subject of a further assay is DU4475 cells. As to the kind of experiment: Cell-based assay: anti-proliferative activity, Cell Counting Kit-8, 72 hours (DU4475). As to conditions: Homo sapiens, DU-4475.
The subject of another assay is 22Rv1 cells. The assay is described as follows: Cell-based assay: anti-proliferative activity, Cell Counting Kit-8, 72 hours (22Rv1). The following applies: Homo sapiens.
Setting [1] is: HT1197 cells (negative control, no MELK expression).
Where [2] appears, read: HT1197 cells (negative control).
Where [3] appears, read: MELK kinase assay, IMAP fluorescence polarization, 50 micro-M ATP.

In patent US9120749B2, “Quinoline derivatives and MELK inhibitors containing the same” (ONCOTHERAPY SCIENCE, INC., priority 2010, dated 2015) one finds IC50 data, which are given here for 18 compounds.

Structures can show the parent of a compound that is named as a salt. Where two headings read alike, the source gives them in different places.

MELK, sequence (Q14680 whole entry, looked up): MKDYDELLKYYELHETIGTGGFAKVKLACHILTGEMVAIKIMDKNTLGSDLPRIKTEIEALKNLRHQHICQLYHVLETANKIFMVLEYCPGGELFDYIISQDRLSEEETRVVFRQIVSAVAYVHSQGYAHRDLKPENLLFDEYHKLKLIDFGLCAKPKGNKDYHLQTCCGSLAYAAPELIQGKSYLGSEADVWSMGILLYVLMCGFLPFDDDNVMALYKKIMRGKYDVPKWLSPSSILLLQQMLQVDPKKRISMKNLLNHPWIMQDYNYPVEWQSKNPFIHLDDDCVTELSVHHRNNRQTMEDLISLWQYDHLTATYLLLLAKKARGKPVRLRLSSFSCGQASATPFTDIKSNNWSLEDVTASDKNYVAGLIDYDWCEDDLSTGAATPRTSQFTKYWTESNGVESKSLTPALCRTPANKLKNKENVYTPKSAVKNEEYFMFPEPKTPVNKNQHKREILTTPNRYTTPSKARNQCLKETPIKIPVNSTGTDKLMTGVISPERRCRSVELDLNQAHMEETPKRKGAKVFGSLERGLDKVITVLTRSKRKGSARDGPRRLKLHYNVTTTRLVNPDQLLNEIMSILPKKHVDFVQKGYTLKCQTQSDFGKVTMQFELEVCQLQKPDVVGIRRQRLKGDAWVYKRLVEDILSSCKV

Take `COc1cc(-c2ccc3ncc(C(=O)C(C)C)c(N[C@H]4CC[C@H](N)CC4)c3c2)cc(Cl)c1O` [Example 502, 1-(4-((trans-4-aminocyclohexyl)amino)-6-(3-chloro-4-hydroxy-5-methoxyphenyl)quinolin-3-yl)-2-methylpropan-1-one]: the half-maximal inhibitory concentration (IC50) – broadly, the concentration that inhibits the measured activity by half – with HT-1197 cells (setting [1]) amounted to 0.31 µM; in the assay on A549 cells, 0.1 µM; at MELK, 0.007 µM; with DU4475, 0.041 µM; with T47D cells it was 0.045 µM.

On to `COc1cc(-c2ccc3ncc(C(=O)C4CC4)c(Nc4cnc(N5CCNCC5)nc4)c3c2)cc(Cl)c1O` [Example 503, (6-(3-chloro-4-hydroxy-5-methoxyphenyl)-4-(2-(piperazin-1-yl)pyrimidin-5-ylamino)quinolin-3-yl)(cyclopropyl)methanone], for which the 50% inhibitory concentration (IC50) in the assay with HT-1197 cells (setting [1]) came to 1.1 µM; in the assay with A549 cells, 0.37 µM; on MELK it was 0.0047 µM; with DU4475, 0.46 µM; with T47D cells, 0.24 µM.

In the case of `NCc1ccc(Nc2c(C(=O)C3CC3)cnc3ccc(-c4cc(F)c(O)c(Cl)c4)cc23)cc1` [Example 504, {4-[4-(Aminomethyl)phenylamino]-6-(3-chloro-5-fluoro-4-hydroxyphenyl)quinolin-3-yl}(cyclopropyl)methanone], the half-maximal inhibitory concentration (IC50) in the assay on HT-1197 cells (setting [1]) came to 0.71 µM; in the assay with A549 cells, 0.081 µM; on MELK it was 0.0089 µM; in the assay on DU4475 it was 0.019 µM; in the assay on T47D cells it was 0.084 µM.

With `COc1cc(-c2ccc3ncc(C(=O)C4CC4)c(Nc4ccc(CN)cc4)c3c2)cc(Cl)c1O` [Example 506, (4-(4-(aminomethyl)phenylamino)-6-(3-chloro-4-hydroxy-5-methoxyphenyl)quinolin-3-yl)(cyclopropyl)methanone], the concentration for half-maximal inhibition (IC50) in the assay with HT-1197 cells (setting [1]) is 0.74 µM; in the assay on A549 cells it was 0.18 µM; at MELK it was 0.0032 µM; in the assay with DU4475 it was 0.13 µM; in the assay with T47D cells, 0.15 µM.

As for `NCc1ccc(Nc2c(C(=O)C3CC3)cnc3ccc(-c4cc(Cl)c(O)c(Cl)c4)cc23)cc1` [Example 507, {4-[4-(Aminomethyl)phenylamino]-6-(3,5-dichloro-4-hydroxyphenyl)quinolin-3-yl}(cyclopropyl)methanone], the IC50 in the assay with HT-1197 cells (setting [1]) was 0.58 µM; with A549 cells, 0.059 µM; at MELK, 0.0038 µM; with DU4475, 0.018 µM; with T47D cells, 0.094 µM.

Take `CCN(CC)CCO[C@H]1CC[C@H](Nc2c(C(C)=O)cnc3ccc(-c4cc(Cl)c(O)c(Cl)c4)cc23)CC1` [Example 868, 1-(6-(3,5-dichloro-4-hydroxyphenyl)-4-((1R,4R)-4-(2-(diethylamino)ethoxy)cyclohexyl)amino)quinolin-3-yl)ethanone hydrochloride]: the IC50 in the assay with HT-1197 cells (setting [2]) came to 2.8 µM; in the assay on A549 cells, 0.28 µM; in the assay with DU4475 cells, 0.29 µM; in the assay with T47D cells, 0.14 µM; in the assay with 22Rv1 cells, 0.3 µM.

As to `CC(=O)c1cnc2cc(C)c(-c3cc(Cl)c(O)c(Cl)c3)cc2c1N[C@H]1CC[C@H](CN2CCC(N)C2)CC1` (stereo partly drawn) [Example 872, 1-(4-((1R,4R)-4-((3-aminopyrrolidin-1-yl)methyl)cyclohexyl)amino)-6-(3,5-dichloro-4-hydroxyphenyl)-7-methylquinolin-3-yl)ethanone hydrochloride], the half-inhibitory concentration (IC50) in the assay on HT-1197 cells (setting [2]) was found to be 100 µM; in the assay on A549 cells, 100 µM; in the assay with DU4475 cells, 0.26 µM; in the assay on T47D cells, 17 µM; in the assay on 22Rv1 cells it was 14 µM.

`CC(=O)c1cnc2ccc(-c3cc(Cl)c(O)c(Cl)c3)cc2c1Nc1cncc(CCN2CCCC2)c1` [Example 873, 1-(6-(3,5-dichloro-4-hydroxyphenyl)-4-((5-(2-(pyrrolidin-1-yl)ethyl)pyridin-3-yl)amino)quinolin-3-yl)ethanone hydrochloride]: the half-inhibitory concentration (IC50) in the assay with HT-1197 cells (setting [2]) was determined as 100 µM; in the assay with A549 cells, 0.35 µM; on MELK (setting [3]) it was 0.0067 µM; in the assay on DU4475 cells it was 0.17 µM; in the assay on T47D cells, 100 µM.

As to `O=C(c1cnc2ccc(-c3cc(Cl)c(O)c(Cl)c3)cc2c1Nc1cncc(CCN2CCCC2)c1)C1CC1` [Example 881, cyclopropyl(6-(3,5-dichloro-4-hydroxyphenyl)-4-((5-(2-(pyrrolidin-1-yl)ethyl)pyridin-3-yl)amino)quinolin-3-yl)methanone], the IC50 was 100 µM in the assay with HT-1197 cells (setting [2]); 0.15 µM with A549 cells; 0.0064 µM at MELK (setting [3]); 0.078 µM in the assay with DU4475 cells; 100 µM in the assay on T47D cells.

As to `CS(=O)(=O)c1cnc2ccc(-c3cc(Cl)c(O)c(Cl)c3)cc2c1Nc1cccc(CCN2CCCC2)c1` [Example 883, 2,6-dichloro-4-(3-(methylsulfonyl)-4-((3-(2-(pyrrolidin-1-yl)ethyl)phenyl)amino)quinolin-6-yl)phenol hydrochloride], the IC50 worked out at 100 µM in the assay on HT-1197 cells (setting [2]); 1.9 µM with A549 cells; 0.53 µM in the assay with DU4475 cells; 1.4 µM with T47D cells; 1.5 µM in the assay with 22Rv1 cells.

On to `CC(=O)c1cnc2ccc(-c3cc(Cl)c(O)c(Cl)c3)cc2c1Nc1ccc(S(=O)(=O)N2CCN(C)CC2)cc1` [Example 887, 1-(6-(3,5-dichloro-4-hydroxyphenyl)-4-((4-((4-methylpiperazin-1-yl)sulfonyl)phenyl)amino)quinolin-3-yl)ethanone hydrochloride], for which the concentration for half-maximal inhibition (IC50) in the assay on HT-1197 cells (setting [2]) turned out to be 100 µM; in the assay with A549 cells, 100 µM; in the assay on DU4475 cells, 100 µM; in the assay on T47D cells it was 1.3 µM.

Consider `CS(=O)(=O)c1cnc2ccc(-c3cc(Cl)c(O)c(Cl)c3)cc2c1N[C@H]1CC[C@H](CN2CCCC2)CC1` [Example 890, 2,6-dichloro-4-(3-(methylsulfonyl)-4-((1R,4R)-4-(pyrrolidin-1-ylmethyl)cyclohexyl)amino)quinolin-6-yl) phenol hydrochloride], for which the IC50 in the assay on HT-1197 cells (setting [2]) worked out at 3 µM; in the assay on A549 cells, 1.1 µM; in the assay on DU4475 cells, 0.35 µM; in the assay on T47D cells, 1.3 µM; with 22Rv1 cells, 0.94 µM.

For the compound `CC(=O)c1cnc2ccc(-c3cc(F)c(O)c(Cl)c3)cc2c1Nc1ccc(S(=O)(=O)N2CCN(C)CC2)cc1` [Example 894, 1-(6-(3-chloro-5-fluoro-4-hydroxy-phenyl)-4-((4-((4-methylpiperazin-1-yl)sulfonyl)phenyl)amino)quinolin-3-yl)ethanone hydrochloride], the IC50 in the assay on HT-1197 cells (setting [2]) amounted to 63 µM; in the assay on A549 cells it was 100 µM; on MELK (setting [3]), 0.039 µM; with DU4475 cells, 100 µM; in the assay on T47D cells, 1.5 µM.

With `CN(C)C1CCN(c2ccc(Nc3c(S(C)(=O)=O)cnc4ccc(-c5cc(Cl)c(O)c(Cl)c5)cc34)cn2)C1` (centres unmarked) [Example 906, 2,6-dichloro-4-(4-((6-(3-(dimethyl-amino)pyrrolidin-1-yl)pyridin-3-yl)amino)-3-(methylsulfonyl)quinolin-6-yl)phenol hydrochloride], the IC50 amounted to 9.3 µM in the assay with HT-1197 cells (setting [2]); 2 µM in the assay with A549 cells; 0.66 µM in the assay on DU4475 cells; 1.3 µM in the assay on T47D cells; 2 µM in the assay with 22Rv1 cells.

Turning to `CN(C)C[C@H]1CC[C@H](Nc2c(C(=O)C3CCCC3)cnc3ccc(-c4cc(Cl)c(O)c(Cl)c4)cc23)CC1` [Example 917, cyclopentyl(6-(3,5-dichloro-4-hydroxy-phenyl)-4-((1R,4R)-4-((dimethyl-amino)methyl)cyclohexyl)amino) quinolin-3-yl)methanone hydrochloride], the half-inhibitory concentration (IC50) in the assay with HT-1197 cells (setting [2]) came out at 3.3 µM; in the assay with A549 cells, 0.68 µM; in the assay with DU4475 cells, 0.19 µM; in the assay on T47D cells, 0.7 µM; in the assay on 22Rv1 cells, 0.91 µM.

For `CN(C)C[C@H]1CC[C@H](Nc2c(C(=O)C(C)(C)C)cnc3ccc(-c4cc(Cl)c(O)c(Cl)c4)cc23)CC1` [Example 918, 1-(6-(3,5-dichloro-4-hydroxyphenyl)-4-((1R,4R)-4-((dimethylamino)methyl)cyclohexyl)amino)quinolin-3-yl)-2,2-dimethylpropan-1-one hydrochloride], the IC50 was 10 µM with HT-1197 cells (setting [2]); 5.5 µM in the assay on A549 cells; 3.2 µM in the assay on DU4475 cells; 3 µM in the assay on T47D cells; 6.6 µM in the assay on 22Rv1 cells.

Take `CC(=O)c1cnc2ccc(-c3cc(Cl)c(O)c(Cl)c3)cc2c1N[C@H]1CC[C@H](NC(=O)[C@@H](N)C(C)(C)C)CC1` [Example 922, (S)-N-((1r,4S)-4-((3-acetyl-6-(3,5-dichloro-4-hydroxyphenyl)quinolin-4-yl)amino)cyclohexyl)-2-amino-3,3-dimethylbutanamide hydrochloride]: the 50% inhibitory concentration (IC50) is 4.5 µM in the assay with HT-1197 cells (setting [2]); 0.62 µM with A549 cells; 0.21 µM in the assay on DU4475 cells; 0.2 µM with T47D cells; 0.65 µM with 22Rv1 cells.

As to `O=C(c1cnc2ccc(-c3cc(Cl)c(O)c(Cl)c3)cc2c1Nc1cccc(CCN2CCCC2)c1)C1CCCC1` [Example 927, cyclopentyl(6-(3,5-dichloro-4-hydroxy-phenyl)-4-((3-(2-(pyrrolidin-1-yl)ethyl)phenyl)amino)quinolin-3-yl) methanone hydrochloride], the IC50 stood at 12 µM in the assay with HT-1197 cells (setting [2]); 0.71 µM in the assay on A549 cells; 0.48 µM in the assay on DU4475 cells; 1.3 µM in the assay with T47D cells; 0.78 µM in the assay with 22Rv1 cells.
